Test results as given in doi:10.1101/2025.04.28.650819v3 (biorxiv, 2025).

Experiments:
FtsZ = biological target: T1, FtsZ (Mycobacterium tuberculosis, UniProt P9WN95); assay: thermal shift assay; format: binding; conditions: read-out: thermal shift (dTm) at 100 μM, 16 h
T1 sequence (P9WN95 1-379): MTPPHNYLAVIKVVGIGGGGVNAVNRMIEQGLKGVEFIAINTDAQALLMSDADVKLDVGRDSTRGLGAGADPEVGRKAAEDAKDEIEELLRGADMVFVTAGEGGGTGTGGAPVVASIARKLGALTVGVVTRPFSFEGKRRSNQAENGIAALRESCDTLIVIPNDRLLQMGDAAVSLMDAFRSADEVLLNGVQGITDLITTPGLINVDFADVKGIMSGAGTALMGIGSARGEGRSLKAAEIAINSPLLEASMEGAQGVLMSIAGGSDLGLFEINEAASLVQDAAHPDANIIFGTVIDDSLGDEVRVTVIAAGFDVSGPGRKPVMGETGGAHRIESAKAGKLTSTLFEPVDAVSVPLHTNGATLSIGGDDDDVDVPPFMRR

PheRS = PheRS (Mycobacterium tuberculosis, UniProt P9WFU3); assay: ATP consumption assay; format: biochemical
Chain of PheRS (P9WFU3 whole entry): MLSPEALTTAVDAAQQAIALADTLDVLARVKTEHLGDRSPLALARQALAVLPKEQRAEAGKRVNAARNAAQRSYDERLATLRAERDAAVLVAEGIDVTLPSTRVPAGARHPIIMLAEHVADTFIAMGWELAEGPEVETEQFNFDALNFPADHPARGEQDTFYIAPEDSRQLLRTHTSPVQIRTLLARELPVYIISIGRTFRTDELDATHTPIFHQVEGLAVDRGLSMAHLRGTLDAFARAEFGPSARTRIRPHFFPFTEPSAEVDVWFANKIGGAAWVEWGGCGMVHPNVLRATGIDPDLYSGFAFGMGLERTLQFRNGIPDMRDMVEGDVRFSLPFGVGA
Chain of PheRS (P9WFU1 whole entry partner): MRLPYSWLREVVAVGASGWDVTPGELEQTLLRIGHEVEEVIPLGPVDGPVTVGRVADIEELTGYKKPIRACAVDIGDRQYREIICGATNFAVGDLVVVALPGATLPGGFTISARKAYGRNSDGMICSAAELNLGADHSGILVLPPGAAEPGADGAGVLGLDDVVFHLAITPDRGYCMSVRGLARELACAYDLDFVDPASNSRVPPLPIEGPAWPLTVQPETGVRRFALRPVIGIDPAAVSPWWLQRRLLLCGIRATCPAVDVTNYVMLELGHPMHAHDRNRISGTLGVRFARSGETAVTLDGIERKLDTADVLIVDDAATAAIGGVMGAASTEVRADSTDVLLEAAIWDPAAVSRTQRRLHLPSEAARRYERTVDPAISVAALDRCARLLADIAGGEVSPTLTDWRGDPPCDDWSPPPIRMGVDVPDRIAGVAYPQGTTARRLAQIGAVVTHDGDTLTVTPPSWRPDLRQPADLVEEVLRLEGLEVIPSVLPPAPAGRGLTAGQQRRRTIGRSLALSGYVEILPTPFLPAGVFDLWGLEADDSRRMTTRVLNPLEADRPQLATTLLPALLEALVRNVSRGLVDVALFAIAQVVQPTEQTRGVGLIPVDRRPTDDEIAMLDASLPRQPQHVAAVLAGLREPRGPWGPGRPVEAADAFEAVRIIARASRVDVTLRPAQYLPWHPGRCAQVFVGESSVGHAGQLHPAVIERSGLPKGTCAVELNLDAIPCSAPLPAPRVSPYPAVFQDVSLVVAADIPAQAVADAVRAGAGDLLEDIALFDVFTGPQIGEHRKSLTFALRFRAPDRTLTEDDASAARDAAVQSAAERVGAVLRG

Row | SMILES | ΔTm at 100 µM (FtsZ) [°C] | IC50 (PheRS) [µM]
1 | O=C(Nc1cccc(-c2nn[nH]n2)c1)c1ccc2nc(-c3ccccc3)[nH]c2c1 [GDI-10928] | 1.84 | 120
2 | CC(=O)Nc1cc(Nc2cc(NC3CC3)n3ncc(C#N)c3n2)ccc1N(C)CC(=O)Nc1cccc(C(F)(F)F)c1 [GDI-10996] | 1.25 | –
